# Test system: PSMA-expressing LNCAP cancer xenografts
# Experiment: Biodistribution and tumor-to-background contrast ratios of 18F-labeled tracers
# Type: in vivo, mouse (NODSCID 1L2RγKO male mice)
# Protocol: LNCap cell line was obtained from ATCC (LNCaP clone FGC, CRL-1740). It was established from a metastatic site of left supraclavicular lymph node of human prostatic adenocarcinoma. Cells were cultured in PRMI 1640 medium supplemented with 10% FBS, penicillin (100 U/mL) and streptomycin (100 μg/mL) at 37° C. in a humidified incubator containing 5% CO2. Cells grown to 80-90% confluence were then washed with sterile phosphate-buffered saline (1×PBS pH 7.4) and trypsinization. The collected cells number was counted with a Hausser Scientific (Horsham, Pa.) Hemacytometer.
# Imaging and biodistribution experiments were performed using NODSCID 1L2RγKO male mice. Mice were anesthetized by inhalation with 2% isoflurane in oxygen, and implanted subcutaneously with 1×10^7 LNCaP cells behind left shoulder. Mice were imaged or used in biodistribution studies when the tumor grew up to reach 5-8 mm in diameter during 5-6 weeks.
# PET imaging experiments were conducted using Siemens Inveon micro PET/CT scanner. Each tumor bearing mouse was injected 6-8 MBq of F-18 labeled tracer through the tail vein under anesthesia (2% isoflurane in oxygen). The mice were allowed to recover and roam freely in their cage. After 50 min, the mice were sedated again with 2% isoflurane in oxygen inhalation and positioned in the scanner. A 10-min CT scan was conducted first for localization and attenuation correction after segmentation for reconstructing the PET images. Then, a 10-min static PET imaging was performed to determined uptake in tumor and other organs. The mice were kept warm by a heating pad during acquisition. For imaging studies acquired at 2 h post-injection (p.i.), the mice were placed in the micro PET/CT scanner at 110 min p.i. Then, the CT and PET acquisitions were conducted as described above.
# For biodistribution studies, the mice were injected with the radiotracer as described above. At predetermined time points (1 or 2 h), the mice was anesthetized with 2% isoflurane inhalation, and euthanized by CO2 inhalation. Blood was withdrawn immediately from the heart, and the organs/tissues of interest were collected. The collected organs/tissues were weighed and counted using an automatic gamma counter. The uptake in each organ/tissue was normalized to the injected dose using a standard curve, and expressed as the percentage of the injected dose per gram of tissue (% ID/g).
Compound,Biodistribution Adrenal glands (1 h),Biodistribution Blood (1 h),Biodistribution Bone (1 h),Biodistribution Brain (1 h),Biodistribution Fat (1 h),Biodistribution Heart (1 h),Biodistribution Intestine (1 h),Biodistribution Kidneys (1 h),Biodistribution Liver (1 h),Biodistribution Lungs (1 h),Biodistribution Muscle (1 h),Biodistribution Pancreas (1 h),Biodistribution Spleen (1 h),Biodistribution Stomach (1 h),Biodistribution Testes (1 h),Biodistribution Tumor (1 h),Tumor:Blood contrast ratio (1 h),Tumor:Muscle contrast ratio (1 h),Tumor:kidney contrast ratio (1 h),Biodistribution Adrenal glands (2 h),further results
C[N+](C)(Cc1ccc(C(=O)NCCCC[C@H](NC(=O)N[C@@H](CCC(=O)O)C(=O)O)C(=O)O)cc1)C[B-](F)(F)[18F] [F-18 HTK-01069],4.77 ± 1.75 % ID/g,0.57 ± 0.15 % ID/g,0.36 ± 0.02 % ID/g,0.04 ± 0.01 % ID/g,0.99 ± 0.39 % ID/g,0.30 ± 0.06 % ID/g,0.54 ± 0.11 % ID/g,114 ± 41.3 % ID/g,2.90 ± 0.56 % ID/g,1.37 ± 0.36 % ID/g,0.26 ± 0.08 % ID/g,0.55 ± 0.16 % ID/g,2.67 ± 0.98 % ID/g,0.12 ± 0.05 % ID/g,0.62 ± 0.15 % ID/g,6.04 ± 1.24 % ID/g,10.8 ± 1.64,23.4 ± 3.71,0.07 ± 0.06,3.66 ± 2.01 % ID/g,Biodistribution Blood (2 h): 0.24 ± 0.10 % ID/g; Biodistribution Bone (2 h): 0.30 ± 0.10 % ID/g; Biodistribution Brain (2 h): 0.04 ± 0.01 % ID/g; Biodistribution Fat (2 h): 0.86 ± 0.53 % ID/g; Biodistribution Heart (2 h): 0.20 ± 0.08 % ID/g; Biodistribution Intestine (2 h): 0.72 ± 0.15 % ID/g; Biodistribution Kidneys (2 h): 103 ± 56.7 % ID/g; Biodistribution Liver (2 h): 2.75 ± 0.56 % ID/g; Biodistribution Lungs (2 h): 0.99 ± 0.32 % ID/g; Biodistribution Muscle (2 h): 0.15 ± 0.04 % ID/g; Biodistribution Pancreas (2 h): 0.41 ± 0.20 % ID/g; Biodistribution Spleen (2 h): 1.93 ± 0.85 % ID/g; Biodistribution Stomach (2 h): 0.09 ± 0.03 % ID/g; Biodistribution Testes (2 h): 0.40 ± 0.06 % ID/g; Biodistribution Tumor (2 h): 5.47 ± 0.75 % ID/g; Tumor:Blood contrast ratio (2 h): 26.9 ± 13.3; Tumor:Muscle contrast ratio (2 h): 37.4 ± 8.86; Tumor:kidney contrast ratio (2 h): 0.07 ± 0.03
C[N+](C)(Cc1cn(Cc2ccc(C(=O)NCCCC[C@H](NC(=O)N[C@@H](CCC(=O)O)C(=O)O)C(=O)O)cc2)nn1)C[B-](F)(F)[18F] [F-18 HTK-01070],4.65 ± 1.75 % ID/g,0.52 ± 0.06 % ID/g,0.44 ± 0.09 % ID/g,0.04 ± 0.01 % ID/g,0.73 ± 0.26 % ID/g,0.33 ± 0.08 % ID/g,0.33 ± 0.05 % ID/g,71.7 ± 18.0 % ID/g,1.69 ± 0.19 % ID/g,1.39 ± 0.17 % ID/g,0.23 ± 0.04 % ID/g,0.33 ± 0.05 % ID/g,5.01 ± 0.64 % ID/g,0.10 ± 0.03 % ID/g,0.67 ± 0.17 % ID/g,8.28 ± 1.25 % ID/g,16.0 ± 1.37,37.3 ± 9.53,0.12 ± 0.04,2.11 ± 0.78 % ID/g,Biodistribution Blood (2 h): 0.23 ± 0.11 % ID/g; Biodistribution Bone (2 h): 0.30 ± 0.06 % ID/g; Biodistribution Brain (2 h): 0.03 ± 0.01 % ID/g; Biodistribution Fat (2 h): 0.62 ± 0.34 % ID/g; Biodistribution Heart (2 h): 0.13 ± 0.06 % ID/g; Biodistribution Intestine (2 h): 0.29 ± 0.08 % ID/g; Biodistribution Kidneys (2 h): 68.5 ± 28.7 % ID/g; Biodistribution Liver (2 h): 1.50 ± 0.30 % ID/g; Biodistribution Lungs (2 h): 0.69 ± 0.23 % ID/g; Biodistribution Muscle (2 h): 0.12 ± 0.03 % ID/g; Biodistribution Pancreas (2 h): 0.21 ± 0.07 % ID/g; Biodistribution Spleen (2 h): 1.30 ± 0.48 % ID/g; Biodistribution Stomach (2 h): 0.06 ± 0.02 % ID/g; Biodistribution Testes (2 h): 0.36 ± 0.21 % ID/g; Biodistribution Tumor (2 h): 7.56 ± 1.57 % ID/g; Tumor:Blood contrast ratio (2 h): 38.9 ± 18.8; Tumor:Muscle contrast ratio (2 h): 67.7 ± 14.8; Tumor:kidney contrast ratio (2 h): 0.14 ± 0.10

# Reference: patent US10882871B2, “18/19F-labelled compounds which target the prostate specific membrane antigen” (BRITISH COLUMBIA CANCER AGENCY BRANCH, priority 2016, dated 2021)
